Our source for the TGI and GI50 values is PubChem BioAssay (NCI).

Common to all, as to experiment: NCI-60 cell line screen, 48 h
Assay [1] deals with LXFL 529 NSCLC.
The test system of assay [2] is DLD-1 colon.
Assay [3] concerns SNB-78 CNS.
Assay [4] concerns M19-MEL melanoma.
Assay [5] deals with KM20L2 colon.
The test system of assay [6] is COLO 205 colon.
Assay [7] deals with MDA-MB-231 breast.
Assay [8] concerns PC-3 prostate.
The test system of assay [9] is MDA-MB-435.

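These data come from cells grown in 96-well plates and exposed to compound for 48 hours at five concentrations. Here, GI50 denotes the concentration required for 50% inhibition of growth. TGI marks complete inhibition of growth.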

For the compound `CCc1ccc(Cc2ccc(CC)c(NC(=O)C(=O)Cc3nc4ccccc4nc3C)c2CC)c(CC)c1NC(=O)C(=O)Cc1nc2ccccc2nc1C`, the TGI in assay [1], in assay [2], in assay [3], in [4], in [5] and in [6] was above 100 µM in each case.
For the compound `CN(C)C1(C#N)CCC2(CC1)OCCO2`, the TGI in [3], in assay [4], in assay [5] and in assay [6] was above 100 µM throughout.
As to `COCCNC(=O)C1C(=O)N(CCOC)C(=O)/C1=N/N` (centres undefined), the TGI in assay [1], in assay [2], in assay [3], in [4] and in assay [5] was above 100 µM each time.
Turning to `CCCOC(=O)C1CCC(=O)N1C(=O)C(Cl)Cl` (centres undefined), the TGI in assay [1], in [2], in [3], in [4], in assay [5] and in [6] was above 100 µM each time.
With `O=C(CC(O)(c1ccccc1)c1ccc(Cl)cc1)NC(=O)c1ccccc1O` (centres undefined), the TGI in assay [1] is 56.3 µM; in assay [2], above 100 µM; in assay [3], above 100 µM; in assay [4], 82.8 µM; in [5], 34.3 µM; in [6] it was 27.5 µM.
For `[N-]=[N+]=Nc1ccc(S(=O)(=O)Oc2cc(OS(=O)(=O)c3ccc(N=[N+]=[N-])cc3)cc(OS(=O)(=O)c3ccc(N=[N+]=[N-])cc3)c2)cc1`, the TGI is above 100 µM in [1]; above 100 µM in assay [2]; above 100 µM in [3]; above 100 µM in assay [4]; above 100 µM in assay [5]; above 10 µM in [6].
In the case of `COc1ccc(NC(=O)CC/C(CC(=O)c2ccco2)=N/Nc2ccc([N+](=O)[O-])cc2[N+](=O)[O-])cc1`, the TGI in assay [1], in assay [3], in assay [4], in assay [5] and in [6] was above 100 µM each time.
Turning to `CC(=O)OC1COC(N2C(=O)C(=O)c3c(C)cc(Cl)nc32)C(OC(C)=O)C1OC(C)=O` (centres undefined), the TGI in [1], in assay [2], in assay [3], in assay [4], in [5] and in assay [6] was above 100 µM each time.
Regarding `COC1OC(OC)C2C(c3c(C)cc(C)cc3C)=NOC12` (centres undefined), the TGI in assay [1], in assay [2], in assay [3], in assay [4], in assay [5] and in assay [6] was above 100 µM in each case.
Take `COC(=O)C1=Cc2cc3c(cc2[C@H](c2ccc4c(c2)OCO4)C1C(=O)OC)OCO3` (some centres undefined): the TGI in assay [1], in assay [2], in [3], in assay [4], in [5] and in assay [6] was above 100 µM in each case.
Regarding `COc1ccc(C(=O)O/N=C2\CCCC\C2=C/c2ccccc2)cc1`, the TGI in assay [1], in assay [2], in assay [3], in [4], in assay [5] and in assay [6] was above 100 µM throughout.
Take `COC1CCC(=C2C(=O)OC(C)(C)OC2=O)N1` (centres undefined): the TGI in assay [1], in [2], in assay [4], in [5] and in assay [6] was above 100 µM in each case.
Consider `COC(=O)C(=O)C(C#N)c1cccc2ccccc12` (centres undefined), for which the TGI in [1], in assay [2], in [3], in [4], in assay [5] and in assay [6] was above 100 µM throughout.
Turning to `CCCCN(CCCC)C(=Nc1ccccc1)N(CCCC)CCCC`, the TGI in [1] worked out at 18.5 µM; in assay [2] it was 43.6 µM; in assay [3] it was 41 µM; in assay [4], 22.4 µM; in [5] it was 12.5 µM; in [6], 14 µM.
With `CCN(CC)CCN(C)CC(C)(C)C(=O)/C=C/c1ccccc1`, the TGI in [1] came out at 24.7 µM; in assay [2], 22.2 µM; in assay [4] it was 24.3 µM; in assay [5], 23.1 µM; in [6], 26.6 µM.
As for `CCCCNC(=S)Nn1c(-c2ccccc2)nc2ccccc2c1=O`, the TGI in assay [1], in [2], in assay [4] and in assay [6] was above 100 µM each time.
As to `Cc1ccc(S(=O)(=O)NCCCN(CCCNS(=O)(=O)c2ccc(C)cc2)S(=O)(=O)c2ccc(C)cc2)cc1`, the TGI in [1], in assay [2], in assay [3], in assay [4], in assay [5] and in assay [6] was above 100 µM in each case.
In the case of `CN1CCC(O)C(CNC23CC4CC(CC(C4)C2)C3)C1` (centres undefined), the TGI in [1], in [2], in [3], in assay [4], in assay [5] and in [6] was above 100 µM throughout.
Regarding `CCOC(=O)C(C(=O)c1ccccc1-c1ccccc1C(=O)O)=P(c1ccccc1)(c1ccccc1)c1ccccc1`, the TGI is above 100 µM in [1], 72.8 µM in [4], 59.5 µM in [5] and 40.6 µM in [6].
On to `CN(C)CCCn1cnc2ncccc2c1=O`, for which the TGI in [1], in [2], in [3], in assay [4] and in [6] was above 100 µM each time.
As to `c1ccc([CH2][Sn]([CH2]c2ccccc2)([S]c2cccc3cccnc23)[S]c2cccc3cccnc23)cc1`, the GI50 in assay [1] was 0.101 µM; in assay [2], 0.282 µM; in assay [3] it was 0.382 µM; in assay [4], 0.276 µM; in assay [5], 0.365 µM; in assay [6], 0.0801 µM. In addition, the TGI in assay [1] came to 0.244 µM; in assay [2], 0.886 µM; in assay [3], 1.5 µM; in [4] it was 0.739 µM; in [5], 1.14 µM; in assay [6], 0.366 µM.
Turning to `O=c1[nH]nc(-c2ccccc2)c(-c2ccccc2)c1-n1nc(-c2ccccc2)c2ccccc2c1=O`, the TGI in assay [1], in assay [2], in assay [3], in [4] and in [6] was above 100 µM each time.
Turning to `O=C(CC1Sc2ccccc2NC1=O)Nc1cccc(Cl)c1` (centres undefined), the TGI in assay [1], in assay [2], in assay [3], in [4] and in [5] was above 100 µM throughout.
For the compound `C[N+](C)(C)CC(=O)N/N=C(/C=C/c1ccccc1)CC1OC(=O)c2ccccc21` (centres undefined), the TGI in [1], in assay [2], in assay [3], in [4], in assay [5] and in assay [6] was above 100 µM in each case.
Take `CC(C)NC(=O)OCc1nnn2c1C(OC(=O)NC(C)C)CC2` (centres undefined): the TGI in [1], in [2], in [3], in assay [4], in [5] and in assay [6] was above 100 µM in each case.
Turning to `N#Cc1c([N+](=O)[O-])cc(C(F)(F)F)cc1[N+](=O)[O-]`, the TGI in [1] amounted to 4.42 µM; in assay [2] it was 16.7 µM; in [3], 4.15 µM; in [4], 5.27 µM; in [5], 44.2 µM; in assay [6], 14.8 µM.
With `O=C(Nc1nc2ncn(CCOC(=O)c3ccccc3)c2c(=O)[nH]1)c1ccccc1`, the TGI in assay [1] is above 100 µM; in assay [7] it was above 100 µM; in assay [3], above 100 µM; in assay [8], above 100 µM; in assay [5] it was 83.3 µM; in [6] it was 23.6 µM. In [9], this compound registered a TGI of 8.32 µM.
With `CCC12C=CCN3CC[C@]4(C(=C(C(=O)OC)[C@@H]1Nc1ncnc5c1ncn5C1OC(COC(C)=O)C(OC(C)=O)C1OC(C)=O)Nc1ccccc14)C32` (some centres undefined), the TGI turned out to be 5.42 µM in [1]; 6.22 µM in assay [2]; 8.26 µM in assay [3]; 5.93 µM in assay [4]; 6.94 µM in [5]; 3.48 µM in [6].
For the compound `COC(=O)C1Cc2c([nH]c3ccccc23)[C@H](CC(C)C)N1` (some centres undefined), the TGI in assay [1], in [2], in [3], in [4], in assay [5] and in assay [6] was above 100 µM throughout.
In the case of `CC(C)c1ccc2c(c1)CCC1C(C)(C)[C@@H](O)CC[C@]21C` (some centres undefined), the TGI in [1] is above 100 µM; in assay [2], above 100 µM; in [3] it was above 100 µM; in assay [4] it was 44.2 µM; in [5], 44.4 µM; in assay [6], 32.9 µM.
Take `C=C1C(=O)OC2C1C(OC(=O)/C(=C/C)COC(C)=O)CC1(CO1)C1C(OC(=O)/C(=C/C)CO)C=C(C)C21` (centres undefined): the TGI stood at 1.66 µM in [1]; 4.14 µM in assay [2]; 6.41 µM in assay [3]; 4.3 µM in assay [4]; 11.2 µM in assay [5]; 2.3 µM in assay [6].
As to `O=C1CCCC1C(=O)Nc1ccc2ccccc2c1` (centres undefined), the TGI in assay [7], in assay [8], in [6] and in assay [9] was above 100 µM each time.
On to `CCOC(=O)c1cnc2ccc(Cl)cc2c1NCCCN(C)C`, for which the GI50 is 19.5 µM in [7], 27.3 µM in [8], 10.5 µM in [6] and 17.9 µM in [9]. Besides, the TGI in [7] is 86.4 µM; in [8], above 100 µM; in [6], 24.6 µM; in assay [9] it was 43.5 µM.
As for `C#Cc1cccc(NC(=O)Nc2ccccc2NC(=O)CCl)c1`, the GI50 in assay [7] was 16.6 µM; in [8], 21.5 µM; in [6], 29 µM; in assay [9], 15 µM. Further, the TGI in [7] was 34.6 µM; in [8], 58 µM; in [6] it was above 82.5 µM; in [9], 31.5 µM.
Regarding `COC(=O)C1=C(O)C(O)=C(C(=O)OC)CC1`, the TGI in assay [1], in [2], in assay [3], in assay [4] and in assay [6] was above 100 µM throughout.
Turning to `Clc1ccc(Cl)c(N/N=C\c2c[nH]c3ccccc23)c1`, the GI50 in [7] was 2.05 µM; in assay [8] it was 0.915 µM; in [6], 14 µM; in assay [9], 12.2 µM. Besides, the TGI was found to be 8.07 µM in assay [7], 9.48 µM in [8], 30.4 µM in [6] and 28.1 µM in [9].
With `COc1cc([C@@H]2c3cc4c(cc3[C@H](OC3OC5COC(c6ccccc6)OC5C(O)C3O)[C@H]3COC(=O)[C@H]23)OCO4)cc(OC)c1OC` (some centres undefined), the GI50 in [7] was 0.422 µM; in assay [8] it was 0.432 µM; in assay [6], 0.28 µM; in [9], 0.245 µM. Moreover, the TGI amounted to 29 µM in [7], 22.5 µM in assay [8], 0.935 µM in assay [6] and 3.08 µM in assay [9].
`C=C1C(=O)O[C@@H]2[C@@H]3O[C@@](C)(CC/C=C(\C)CCC[C@@H]2C)[C@H](O)C[C@@H]13`: the GI50 in assay [7] is 2.39 µM; in assay [8] it was 4.31 µM; in [6], 2.06 µM; in [9], 1.89 µM. Also, the TGI stood at 7.18 µM in assay [7], 18.3 µM in assay [8], 4.21 µM in assay [6] and 5.47 µM in assay [9].
